Test results reported in article PMC3984256, “A PCNA-Derived Cell Permeable Peptide Selectively Inhibits Neuroblastoma Cell Growth” (PLoS ONE, 2014).

What was measured:
SK-N-BE(2)c cells = test: Clonogenic assay; format: cell-based, human; settings: R9-caPep alone 20 µM 3 weeks, or cisplatin alone 1 µM 2 h, 3 dishes averaged
Experimental: Three hundred fifty SK-N-BE(2)c cells were seeded onto a 60-mm tissue culture dish. Once attached overnight, cells were treated with or without cisplatin for 2 h. Cells were washed twice with growth medium and were cultured in fresh medium with or without R9-caPep for 3 weeks to allow colony formation. The medium was changed every 3 d. The colonies formed under each treatment conditions were counted after being stained with 0.5% crystal violet.

panel of NB cell lines = format: cell-based, human; settings: up to 50 µM; data not shown
Experimental: The human NB cell lines, SK-N-DZ, SK-N-BE(2)c, SK-N-AS, SK-N-SH, and SK-N-FI were obtained from the American Type Culture Collection (Rockville, MD). Cells were maintained in DMEM with 10% fetal bovine serum (FBS), 100 units/ml penicillin, and 100 µg/ml streptomycin in the presence of 5% CO2 at 37°C. Human PBMCs from a healthy donor were purchased from Sanguine BioSciences (Valencia, CA) and grown in RPMI1640 with10% FBS, 100 units/ml penicillin, 100 µg/ml streptomycin, and 10 ng/ml IL-2 in the presence of 5% CO2 at 37°C. Human embryonic progenitor cell line 7SM0032 was acquired from Millipore (Billerica, MA) and grown in the hEPM-1 Media Kit purchased from the same company.
To measure cell growth, cells were seeded at 3×10^4/ml. After being allowed to attach overnight, cells were treated with various concentrations of the peptides for 72 h. Cell growth was measured by the CellTitor-Glo assay (Promega, Madison, WI) according to manufacturer's instruction. To measure apoptosis, cells were seeded at 1×10^5/ml onto a chamber slide. Once attached, cells were treated with the peptides for 48 h. Cells were fixed and analyzed by a TUNEL assay using the TMR red in situ cell death detection kit (Roche Diagnostics, Indianapolis, IN).

[1] = tested on: PCNA and LIGI co-localization in SK-N-AS NB cells; test: PCNA/LIGI co-localization, immunofluorescence; format: cell-based, human; settings: synchronized, 30 µM peptide 6 h after mimosine release
Experimental: (§1) Cells were seeded at 1×10^5/ml onto a chamber slide and were allowed to attach overnight. To analyze the interaction of PCNA with FEN1, LIGI, or Pol ä, we first synchronize cells at the G1/S boundary. The synchronization is achieved by starving cells in medium containing 0.25% FBS for 24 h. Cells were further cultured in the complete medium containing 400 µM of mimosine for 24 h. To release cells into S phase, cells were washed and incubated in mimosine-free medium containing 30 µM R9-caPep or R9-srbPep for 6 h. We pre-determined that the majority of cells were in the S-phase 6 h after mimosine was removed (data not shown). Cells were fixed in ice-cold methanol:acetone (50%:50%) for 10 min or in 4% paraformaldehyde for 20 min at room temperature. Cells were incubated with a goat polyclonal anti-PCNA antibody (Santa Cruz) and a mouse monoclonal anti-FEN1 antibody (Santa Cruz), a mouse anti-POLD3 antibody (Sigma, St. Louis, MO), or a mouse anti-LIGI antibody (Abcam, Cambridge, MA) for 1 h at room temperature. After being washed with PBS, cells were incubated with Alexa Fluor 488 conjugated anti-mouse IgG and Alexa Fluor 555 conjugated anti-goat IgG antibodies (Invitrogen, Grand Island, NY) for 1 h. Cells were mounted in Vectashield with DAPI (Vector Labs, Burlingame, CA) and visualized by a confocal microscope.

[2] = tested on: Rad51 foci in SK-N-BE(2)c cells; test: Rad51 foci immunofluorescence after γ-irradiation; format: cell-based, human; settings: 2 h peptide pretreatment, 5 Gy; 48 h after irradiation
Experimental: (§2) To study DNA damage and repair, attached cells were pretreated with the peptides for 2 h and were then ã-irradiated (5 Gy). After irradiation, cells were cultured in the presence of the peptides for the indicated time. For analyzing ãH2A.X foci formation, cells were fixed in a solution of methanol and acetone (70%:30% v/v) for 15 min at −20°C. The slides were air-dried for storage and rehydrated in PBS prior to immunostaining. Cells were stained by a mouse monoclonal antibody specific to ãH2A.X (Millipore, Billerica, MA) followed by an Alexa Fluor 488 conjugated anti-mouse IgG antibody. For analyzing Rad51 foci formation, cells were fixed in PBS buffered 4% paraformaldehyde at room temperature for 15 min. After being washed twice by PBS, cells were permeabilized in PBS containing 0.5% triton for 15 min on ice. The fixed and permeabilized cells were stained with a rabbit polyclonal antibody raised against the human Rad51 (Santa Cruz) followed by an Alexa Fluor 488 conjugated anti-rabbit IgG antibody. Stained cells were visualized and imaged by a confocal microscope.

synchronized cells = test: Cell cycle analysis of synchronized cells within 6 h (data not shown); format: cell-based; settings: 6 h after mimosine release
Experimental: Cells were seeded at 1×10^5/ml. Once attached, cells were treated with or without R9-caPep for 48 hours. Cells were fixed in 60% ethanol and stained with propidium iodide (PI). The cellular PI fluorescence intensity was determined by flow cytometry. The flow cytometry data were analyzed by the FlowJo program to model various cell populations.
as §1, with “After being washed with PBS, cells were incubated with Alexa Fluor 488 conjugated anti-mouse IgG and Alexa Fluor 555 conjugated anti-goat IgG antibodies (Invitrogen, Grand Island, NY) for 1 h. Cells were mounted in Vectashield with DAPI (Vector Labs, Burlingame, CA) and visualized by a confocal microscope.” left out

ãH2A.X level = test: γH2A.X western blot after γ-irradiation; format: cell-based; settings: 30 µM peptide, 2 h pretreatment, 5 Gy
Experimental: as §2
Cell extracts were prepared by dissolving cell pellets directly into the Laemmli sample buffer and resolved in a 4–12% SDS polyacrylamide gel. Resolved proteins were blotted onto a nitrocellulose membrane. The membrane was blocked with 5% nonfat dry milk and incubated with an antibody specific to ãH2A.X (Millipore), total H2A.X (Cell Signaling Technology, Danvers, MA), MYCN (Cell Signaling Technology), or actin (Sigma) in the blocking buffer. After incubation with peroxidase-conjugated secondary antibodies, the protein of interest was detected using an ECL kit purchased from GE Healthcare.

[3] = tested on: PCNA and FEN1 co-localization in SK-N-AS NB cells; test: PCNA/FEN1 co-localization, immunofluorescence; format: cell-based, human; settings: synchronized, 30 µM peptide 6 h after mimosine release
Experimental: as §1

[4] = biological target: T1, interaction between PCNA and the PIP-box sequence of FEN1 (Homo sapiens, UniProt P39748); test: SPR (Biacore) PCNA binding to immobilized FEN1 PIP-box in presence of caPep
T1 construct: Recombinant PCNA (rPCNA), purchased from Surmodics, Inc. (Edina, MN); FEN1 peptide containing the PIP-box (SKSRQGSTQGRLDDFF); purchased Surmodics, Inc. (Edina, MN)
Experimental: All experiments were conducted on the Biacore T100 (GE Healthcare Life Sciences, Piscataway, NJ) in the running buffer HBS-EP+ (10 mM HEPES pH 7.4, 0.15 M NaCl, 3 mM EDTA, 0.05% v/v Surfactant P20). FEN1 peptide containing the PIP-box (SKSRQGSTQGRLDDFF) was immobilized on a carboxymethylated dextran modified CM5 chip using carbodiimide covalent linkage procedures outlined by the manufacturer (GE Healthcare Life Sciences). Recombinant PCNA (rPCNA), purchased from Surmodics, Inc. (Edina, MN), were serially diluted in the HBS-EP+ buffer and flowed over the FEN1-coated sensor chip in the presence of 0, 500, or 1000 nM of caPep at a 5 ìl/min flow rate with a contact time of 3 minutes, followed by dissociation under the same buffer condition and regeneration of the chip surface in 10 mM glycine-HCl (pH 2.0). Binding curves were recorded for rPCNA concentrations ranging from 250 to 1000 nM in the presence of 0, 500, or 1000 nM of caPep. Kinetic parameters from Biacore binding data were determined using Biacore T100 Evaluation Software Version 2.0.3.

Compound: N.N.[Cl][Pt][Cl] [cisplatin, reference compound]
- reduction of number of colonies, single agent (SK-N-BE(2)c cells): less than 30%

Compound: RDRDRDRDRDRDRDRDRDCCEPGLIYEQ [R9-srbPep, R9-CC fused to the same residues as PCNA L126-Y133 in scrambled order; control]
- effect on cell growth (panel of NB cell lines): did not significantly affect cell growth up to 50 µM
- LIGI co-localization with PCNA foci [1]: PCNA co-localized with FEN1 and LIGI at discrete foci
- Rad51 foci at 48 h [2]: almost completely resolve the Rad51 foci
- cell cycle progress within 6 h (synchronized cells): neither peptide significantly affected cell cycle progress within 6 h
- ãH2A.X level within 30 min after irradiation (ãH2A.X level): increased within 30 min following ã-irradiation in cells treated with either peptide
- ãH2A.X level 48 h after irradiation (ãH2A.X level; 48 h): went down to a basal level by 48 h
- FEN1 co-localization with PCNA foci [3]: PCNA co-localized with FEN1 and LIGI at discrete foci

Compound: caPep: eight amino acid peptide corresponding to the L126-Y133 sequence of human PCNA (LGIPEQEY)
- affinity of PCNA-FEN1 PIP-box interaction ([4]; 0, 500 or 1000 nM caPep): decrease the affinity of PCNA-FEN1 PIP-box interaction in a dose-dependent manner
- rPCNA interaction with immobilized FEN1 PIP-box sequence (SPR response) ([4]; 1000 nM rPCNA, 0, 500 or 1000 nM caPep): significantly reduced rPCNA interaction with the immobilized FEN1 PIP-box sequence
